Here are results for eight molecules from US20240325409A1, “Fused Heterotetracyclic Antiviral Agents” (Enanta Pharmaceuticals, Inc., priority 2023, published 2024).

The structures appear in SMILES notation. Where only a bound is given, the exact number is not on record here.

For one experiment, the system named is HDV. The experiment can be described thus: HDV infection of HepG2-NTCP cells, viral RNA by RT-qPCR. In kind it is cell-based. The note with it: 288 h, 800 GE/cell, viral RNA at day 12 post infection, 50% reduction relative to DMSO controls, read-out: Cellular EC50. The method, then: (§1) HepG2-NTCP A3 cells were maintained in DMEM media supplemented with GlutaMAX™, 10% fetal bovine serum, 1% penicillin/streptomycin, and 5 ug/mL puromycin at 37° C. in a humidified atmosphere with 5% CO2 in a collagen-coated tissue culture flask.
HDV virus collected from the supernatants of HuH7-END cells was purified in the presence of 6% polyethylene glycol (PEG). Viral titer was then quantified by RT-qPCR using HDV specific primers against a reference standard. For HDV infection, HepG2-NTCP cells were seeded in 96-well plates at 60,000 cells/well. On the day of infection, compounds were 4-fold serially diluted in DMSO and pre-incubated with HepG2-NTCP cells for two hours before infecting with 800 GE/cell of HDV in 4% PEG. On day one post infection, HDV-containing media was aspirated, cells were washed once with PBS and then maintained in 2.5% DMSO containing media for the remainder of the assay. Viral RNA was isolated using RNeasy kits (Qiagen) at day 12 post infection and reverse transcribed into cDNA using High-Capacity RNA-to-cDNA Kit (Thermo Fisher). Relative HDV gene expression was quantified by RT-qPCR after normalization to expression of a housekeeping gene. Irrespective of readout, compound concentrations that reduce viral RNA by 50% relative to DMSO controls (EC50) are reported. EC50 ranges are as follows: A<0.1 µM; B 0.1-1 µM; C>1 µM.
In general terms: Quantitative PCR measures a nucleic acid by following its amplification.
The EC50 is the concentration at which the effect is half-maximal. On to `CN1[C@H](C2CCC2)CN(c2ccccc2)c2cc3c(cc2S1(=O)=O)-c1cc(C(=O)O)ccc1CO3` [Example 1, (R)-10-cyclobutyl-11-methyl-8-phenyl-8,9,10,11-tetrahydro-5H-benzo[3,4]chromeno[7,6-f][1,2,5]thiadiazepine-2-carboxylic acid 12,12-dioxide], for which the EC50 was less than 100 nM.

In another experiment the test system is HBV. The experiment can be described thus: HBV infection of HepG2-NTCP cells, HBeAg AlphaLISA readout. The note with it: Hepatitis B virus, 192 h, 2000 GE/cell, HBeAg in supernatant at day 8 post infection, 50% reduction relative to DMSO controls, read-out: Cellular EC50. Type of experiment: cell-based. The method, then: as §1
HepG2-NTCP cells were seeded in 384 well plate containing 16,000 cells/well two days prior to the infection. On the day of infection, compounds were 3-fold serially diluted in DMSO and pre-incubated with HepG2-NTCP cells for two hours before purified HBV addition. HBV infection was carried out at 2000 GE/cell with 4% PEG, and the final concentration of DMSO is 0.5%. On day one post infection, HBV-containing media was aspirated, cells were washed once with PBS and then maintained in 2.5% DMSO containing media for the remainder of the assay.
Supernatants from infected HepG2-NTCP cells were collected at day 8 post infection, and the amount of viral antigen HBeAg was measured by HBeAg AlphaLISA detection kit (PerkinElmer) following the manufacturer's recommended protocol. Irrespective of readout, compound concentrations that reduce viral product accumulation in supernatants by 50% relative to DMSO controls (EC50) are reported. EC50 ranges are as follows: A<0.1 µM; B 0.1-1 µM; C>1 µM.
(In general: Alpha assays give light when donor and acceptor beads are brought close together.)
Take `CN1[C@H](C2CCC2)CN(c2ccccc2)c2cc3c(cc2S1(=O)=O)-c1cc(C(=O)O)ccc1CO3` [Example 1, (R)-10-cyclobutyl-11-methyl-8-phenyl-8,9,10,11-tetrahydro-5H-benzo[3,4]chromeno[7,6-f][1,2,5]thiadiazepine-2-carboxylic acid 12,12-dioxide]: the EC50 was 100 to 1000 nM.

As for `CCCC[C@@H]1CN(c2ccccc2)c2cc3oc4ccc(C(=O)O)cc4c3cc2S(=O)(=O)N1C` [Example 34, (R)-3-butyl-2-methyl-5-phenyl-2,3,4,5-tetrahydrobenzo[2,3]benzofuro[6,5-f][1,2,5]thiadiazepine-10-carboxylic acid 1,1-dioxide], the half-maximal effective concentration (EC50) lay in the range of 100 to 1000 nM. Regarding `CCCC[C@@H]1CN(c2ccccc2)c2cc3c(cc2S(=O)(=O)N1C)-c1cc(C(=O)O)ccc1OCCO3` [Example 35, (R)-12-butyl-13-methyl-10-phenyl-6,7,10,11,12,13-hexahydrobenzo[7′,8′][1,4]dioxocino[6′,5′:4,5]benzo[1,2-f][1,2,5]thiadiazepine-2-carboxylic acid 14,14-dioxide], the EC50 was in the range of 100 to 1000 nM. Still for that read-out and setting: with `CN1[C@H](C2CCC2)CN(c2ccccc2)c2cc3c(cc2S1(=O)=O)-c1sc(C(=O)O)cc1CO3` [Example 36, (R)-9-cyclobutyl-10-methyl-7-phenyl-7,8,9,10-tetrahydro-4H-thieno[3′,2′:3,4]chromeno[7,6-f][1,2,5]thiadiazepine-2-carboxylic acid 11,11-dioxide] the figure was less than 100 nM; with `CCCN1C[C@@H](CC(C)C)N(C)S(=O)(=O)c2cc3c(cc21)OCc1c-3cc(C(=O)O)c(F)c1F` [Example 37], less than 100 nM; with `CC(C)C[C@@H]1CN(C2CC3(CCC3)C2)c2cc3c(cc2S(=O)(=O)N1C)-c1cc(C(=O)O)c(F)c(F)c1CO3` [Example 38], less than 100 nM. For `CC(C)C[C@@H]1CN(C2CCC2)c2cc3c(cc2S(=O)(=O)N1C)-c1cc(C(=O)O)c(F)c(F)c1CO3` [Example 39], the EC50 lay within 100 to 1000 nM. The same measure, in the same setting: the result for `COC(C)(C)CN1C[C@@H](CC(C)C)N(C)S(=O)(=O)c2cc3c(cc21)OCc1c-3cc(C(=O)O)c(F)c1F` [Example 40] reads 100 to 1000 nM.
